From article PMC6450895, “A fungal substrate mimicking molecule suppresses plant immunity via an inter-kingdom conserved motif” (Nature Communications, 2019)
Entries after “also recorded” stand apart in the source; their conditions may differ.

Columns and labels:
[1] = tested on: proteases of maize apoplastic fluid processing UmPit2; assay: Effect of protease inhibitors on processing of UmPit2 in maize apoplastic fluid; format: biochemical; settings: apoplastic fluid preincubated with inhibitor 10 min; 0, 15, 30 min
Protocol: Fig. 5 PLCPs cleave UmPit2 in the apoplast. a Input used to perform inhibitory test of Pit2 stability. Heterologous expressed UmPit2 and maize AF at different time points during the experiment. b Addition of E-64 stabilizes Pit2 degradation. Four inhibitors for main classes of proteases: E-64 for cysteine proteases, DCI for serine hydrolases, EDTA for metalloproteases and Pepstatin A for aspartic proteases were preincubated with maize AF for 10 min. Pit2 degradation was analyzed over time (0, 15 and 30 min) using SyproRuby staining. c Inhibition of cysteine proteases stabilizes Pit2 in the apoplast. Maize AF was coincubated with a mix of inhibitors containing DCI [10 µM], EDTA [1 mM] and Pepstatin A [10 µM] (Inh. Mix) with or without E-64 [10 µM]. As a control the noninhibitor sample containing DMSO is shown. d Fractionation of SA-treated apoplastic fluid by anion-exchange chromatography. […] F-24 was preincubated with 10 µM E-64 or DMSO followed by addition of purified UmPit2. Samples were incubated for 0, 15 and 30 min and analyzed by gel electrophoresis using SyproRuby. f UmPit2 is processed at similar rates as an endogenous maize substrate. UmPit2 as well as the endogenous maize PLCP substrate Prozip11 were heterologous expressed in E-coli. 3.2 µM proteins were coincubated with F-24 pretreated with inhibitor mix (Inh. mix) in the presence or absence of E-64. Processing of Prozip11 and UmPit2 has been monitored over time. Samples were analyzed by gel electrophoresis and stained with SyproRuby for visualization. As a control purified proteins as well as F-24 were loaded on gel (right gel). DMSO dimethyl sulfoxide, DCI 3,4-dichloroisocoumarin
(§1) Approximately 41 µg/ml heterologous expressed UmPit2 and UhPit2 proteins (concentration calculated with the previously described semi-quantitative approach based on SyproRuby) were incubated with or without apoplastic fluids (ca. 200 µg/ml) over time. Reaction was stopped by adding 2× SDS-gel loading buffer) and samples were analyzed by gel electrophoresis and SyproRuby staining (Invitrogen, Paisley, UK). Inhibition of apoplastic fluids containing specific inhibitors was performed as described in the main text. E-64 and pepstatin A were diluted in DMSO at a desired concentration. DCI was diluted in dimethyl formamide. All compounds have been purchased by Sigma-Aldrich (Taufkirchen, Germany). Stability experiments using F-24 were performed using ca. 1.4 µg/µl of the fraction and 3.2 µM of heterologous expressed UmPit2 or […].

[2] = tested on: F-24 (PLCP-enriched fraction of maize apoplastic fluid); assay: Stability/processing in PLCP-enriched fraction F-24 (SDS gel, SyproRuby); format: in vitro ADME; settings: F-24 preincubated with 50 µM / 10 µM E-64
Protocol: as §1

[3] = tested on: PLCPs of fractionated maize apoplastic fluid; assay: PLCP activity of anion-exchange fractions, substrate Z-Phe-Arg-AMC; format: biochemical
Protocol: Fig. 5 PLCPs cleave UmPit2 in the apoplast. a Input used to perform inhibitory test of Pit2 stability. Heterologous expressed UmPit2 and maize AF at different time points during the experiment. b Addition of E-64 stabilizes Pit2 degradation. Four inhibitors for main classes of proteases: E-64 for cysteine proteases, DCI for serine hydrolases, EDTA for metalloproteases and Pepstatin A for aspartic proteases were preincubated with maize AF for 10 min. Pit2 degradation was analyzed over time (0, 15 and 30 min) using SyproRuby staining. c Inhibition of cysteine proteases stabilizes Pit2 in the apoplast. […] Samples were incubated for 0, 15 and 30 min and analyzed by gel electrophoresis using SyproRuby. f UmPit2 is processed at similar rates as an endogenous maize substrate. […] Processing of Prozip11 and UmPit2 has been monitored over time. Samples were analyzed by gel electrophoresis and stained with SyproRuby for visualization. […]
Activity of PLCPs present in isolated apoplastic fluids was monitored using 10 µM final concentration of the fluorogenic substrate Z-Phe-Arg-7-amido-4-methylcoumarin (Sigma-Aldrich, Taufkirchen, Germany). AMC released (RFU) over time was monitored at 460 nm using a Tecan Infinite M200 PRO plate reader (Tecan Group Ltd., Männedorf, Switzerland). […] The inhibitor control was used to normalize all measurements and obtain a read-out for specific PLCP activity. […]

[4] = tested on: apoplastic PLCPs of barley; assay: Apoplastic PLCP activity in SA-treated barley; format: in vivo; settings: Supplementary Fig. 9

Molecule	effect on processing of UmPit2 in maize apoplastic fluid (in words) [1]	effect of E-64 on processing by F-24 (in words) [2]	PLCP activity of fractions with inhibitor (in words) [3]	induction of apoplastic PLCPs by SA (in words) [4]
pepstatin-A	Processing of UmPit2 was observed gradually	–	–	–
CC(C)C[C@H](NC(=O)[C@H]1O[C@@H]1C(=O)O)C(=O)NCCCCN=C(N)N [E-64]	E-64 stabilizes UmPit2	stabilized in the fraction preincubated with E-64; also recorded: stabilization of Prozip1 and UmPit2	did not show any activity	–
O=c1oc(Cl)c(Cl)c2ccccc12 [DCI, 3,4-dichloroisocoumarin]	Processing of UmPit2 was observed gradually	–	–	–
O=C(O)c1ccccc1O [SA, salicylic acid]	–	–	–	not found in barley
O=C(O)CN(CCN(CC(=O)O)CC(=O)O)CC(=O)O [EDTA]	Processing of UmPit2 was observed gradually	–	–	–
